ChEMBL document CHEMBL1150708, “Isolation and bioactivity of new tanshinones” (1987)

Tests used:
Type in all cases: functional
[1] = Antiplatelet activity against platelet assessed as inhibition of ADP-induced platelet aggregation at 50 ug/ml by turbidimetry
[2] = Antiplatelet activity against platelet assessed as inhibition of collagen-induced platelet aggregation at 50 ug/ml by turbidimetry
[3] = Antiplatelet activity against platelet assessed as inhibition of ADP-induced platelet aggregation at 10 ug/ml by turbidimetry
[4] = Antiplatelet activity against platelet assessed as inhibition of collagen-induced platelet aggregation at 10 ug/ml by turbidimetry
[5] = Antiplatelet activity against platelet assessed as inhibition of collagen-induced platelet aggregation at 5 ug/ml by turbidimetry

Row | Structure (SMILES) | inhibition at 50 µg/mL [1] | inhibition at 50 µg/mL [2] | inhibition at 10 µg/mL [3] | inhibition at 10 µg/mL [4] | inhibition at 5 µg/mL [5]
1 | CC(=O)Oc1ccccc1C(=O)O [ASPIRIN] | 74% | 72% | – | – | –
2 | Cc1coc2c1C(=O)c1ccc3c(c1C2=O)CCCC3(C)CO (stereo not given) [ISOTANSHINONE IIB] | – | – | 40% | 81% | 4%
